Results from patent US10927085B2, “1,2-naphthoquinone based derivative and method of preparing the same” (HUEN Co., Ltd., priority 2013, dated 2021).
Like-named read-outs stand apart in the source and are kept apart here.

Key:
NQO1 protein = NQO1 protein (Homo sapiens, UniProt P15559); assay: NQO1 activity measurement (cytochrome C reduction); assay type: biochemical
Experimental: An enzyme reaction solution included 25 mM Tris/HCl (pH 7.4), 0.14% bovine serum albumin, 200 μM NADH, 77 μM cytochrome C, and 5 ng of NQO1 protein. Enzymatic reaction was initiated by adding NADH and performed at 37° C. In this regard, a reaction rate was measured by observing absorbance, which was increased due to reduction of cytochrome C, at 550 nm for 10 minutes and NQO1 activity was represented as an amount of reduced cytochrome C [nmol cytochrome C reduced/min/μg protein].
Extinction coefficient for cytochrome C:21.1 mmol/L/cm=21.1 μmol/ml/cm

C57BL/6J Lep ob/ob mice = assay: Weight loss effects in obese mice (ob/ob); assay type: in vivo; conditions: for weight increase ratio vs controls (FIG. 1): Exp. Ex. 3-1: 6.5 week-old ob/ob mice, 100 mg/kg orally once every day for two weeks
Experimental: 6.5 week-old C57BL/6J Lep ob/ob mice having genetic obesity characteristics available from ORIENTBIO were prepared. Two mice were raised in each polycarbonate breeding cage (200 W×260 L×130H (mm), Three-shine) in which temperature was 22 to 24° C., relative humidity was 30 to 50%, illuminance was 150 to 300 lux, night and day were 12 hours, and exhaust was performed at 10 to 15 air changes per hour. As a feed, low fat diet (11.9 kcal % fat, 5053, Labdiet) manufactured by ORIENTBIO was used. The feed was contained in a feeder and free intake was allowed. As drinking water, water, which was contained in a 250 mL polycarbonate based bottle, purified through a filter and a sterilizer was used and free intake was allowed.
For administration, a disposable syringe fitted with a sonde for oral administration was used and 10 ml/kg of the compound was orally administered into the stomach. As controls, three C57BL/6J Lep ob/ob mice were administered 0.1% SLS in an amount of 100 mg/kg in the same manner as described above. After administration, a time-dependent weight increase ratio was measured and results are illustrated in FIG. 1 below.
Weights of the experimental animals were measured immediately before administration of a test material and six times a week from an administration initiation day to a test termination day. Increased total weights were calculated by subtracting weights measured on an experiment initiation day from weights measured one day before an experiment termination day. Food intake amounts were calculated by measuring feed supply amounts and remaining amounts twice a week from an initiation day of test material administration to a test termination day for each individual.
Weight increase ratios, weight change, and intake amounts depending on administration time were measured and results are illustrated in FIG. 2 below.
Weight increase ratios, weight change, and intake amounts depending on administration time were measured and results are illustrated in FIG. 3 below.
Weight increase ratios, weight change, and intake amounts depending on administration time were measured and results are illustrated in FIG. 4 below.
Weight increase ratios, weight change, and intake amounts depending on administration time were measured and results are illustrated in FIG. 5 below.
Weight increase ratios, weight change, and intake amounts depending on administration time were measured and results are illustrated in FIG. 6 below.
Weight increase ratios, weight change, and intake amounts depending on administration time were measured and results are illustrated in FIG. 7 below.
Weight increase ratios, weight change, and intake amounts depending on administration time were measured and results are illustrated in FIG. 8 below.

cells = assay: Measurement of lactate change amount within cells; assay type: cell-based
Experimental: Cells were treated with 400 μl of 6% PCA, and then collected and extracted. Centrifugation (13,000 rpm, 10 min) was performed. A precipitate was dried using a Speed-Vac and then a weight of dried precipitate was measured. A supernatant was neutralized using 400 μl of 1 M KOH and a final volume thereof was adjusted to 1 ml using 0.33 M KH2PO4/K2HPO4, pH 7.5. Centrifugation (13,000 rpm, 10 min) was performed and the amount of lactate in a supernatant was measured (Megazyme, K-LATE).

[1] = 5 μM, 37° C., absorbance at 550 nm for 10 minutes, 200 μM NADH, 77 μM cytochrome C, 5 ng NQO1 protein
[2] = Exp. Ex. 3-2: 10.5 week-old ob/ob mice, 150 mg/kg orally, six days
[3] = Exp. Ex. 3-6: 12 week-old ob/ob mice, 150 mg/kg orally, seven days
[4] = Exp. Ex. 3-4: 11 week-old ob/ob mice, 100 mg/kg orally, six days
[5] = Exp. Ex. 3-7: 6.5 week-old ob/ob mice, 150 mg/kg orally, seven days
[6] = Exp. Ex. 3-8: 9.5 week-old ob/ob mice, 150 mg/kg orally, otherwise as 3-1
[7] = Exp. Ex. 3-3: 6 week-old ob/ob mice, 100 mg/kg orally, otherwise as 3-1

Chain of NQO1 protein (P15559 whole entry, species assumed): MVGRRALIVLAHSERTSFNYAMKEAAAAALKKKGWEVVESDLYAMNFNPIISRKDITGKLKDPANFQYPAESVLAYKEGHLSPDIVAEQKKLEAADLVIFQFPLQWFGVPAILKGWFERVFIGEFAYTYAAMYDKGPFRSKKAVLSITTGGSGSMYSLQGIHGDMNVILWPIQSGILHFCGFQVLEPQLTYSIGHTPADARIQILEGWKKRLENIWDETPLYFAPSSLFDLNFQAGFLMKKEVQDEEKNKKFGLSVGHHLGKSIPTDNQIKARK

Question: What does the source list for `CCn1c2c(oc1=O)-c1ccccc1C(=O)C2=O` [Example 41]?
Answer: NQO1 activity (5 μM, [nmol cytochrome C reduced/min/μg protein]) (NQO1 protein): 237.1 nmol cytochrome C reduced/min/μg protein; intake amount vs controls (FIG. 7) (C57BL/6J Lep ob/ob mice; mouse, in vivo, po, 150 mg/kg): significantly decreased in some sections; weight change vs controls (FIG. 7) (C57BL/6J Lep ob/ob mice; mouse, in vivo, po, 150 mg/kg): significantly decreased in some sections; weight increase ratio vs controls (FIG. 7) (C57BL/6J Lep ob/ob mice; mouse, in vivo, po, 150 mg/kg): significantly decreased in some sections; Lactate change amount within cells (nmol/mg cell) (cells): 5.2 nmol/mg cell

Question: Which “intake amount vs controls (FIG. 2)” value (C57BL/6J Lep ob/ob mice; mouse, in vivo, po, 150 mg/kg) does the source give for `CN(C)Cc1nc2c(o1)-c1ccccc1C(=O)C2=O` [Example 5, 2-((dimethylamino)methyl)naphtho[2,1-d]oxazole-4,5-dione] here?
Answer: significantly decreased

Question: What about the “weight change vs controls (FIG. 2)” value (C57BL/6J Lep ob/ob mice; mouse, in vivo, po, 150 mg/kg) of the same molecule?
Answer: significantly decreased

Question: What about the “Lactate change amount within cells (nmol/mg cell)” value (shortened to “Lactate change amount within cells”) (cells) of the same molecule?
Answer: 5.9 nmol/mg cell

Question: Which results are given for `O=C1C(=O)c2oc(-c3ccccc3)nc2-c2ccccc21` [Example 27]?
Answer: weight change vs controls (FIG. 4) (C57BL/6J Lep ob/ob mice; mouse, in vivo, po, 100 mg/kg): significantly decreased; Lactate change amount within cells (nmol/mg cell) (cells): 5.8 nmol/mg cell

Question: Which “NQO1 activity (5 μM, [nmol cytochrome C reduced/min/μg protein])” value (NQO1 protein; [1]) does the source give for `CC(C)(C)c1nc2c(o1)-c1ccccc1C(=O)C2=O` [Example 2, 2-tert-butylnaphtho[2,1-d]oxazole-4,5-dione] here?
Answer: 243.2 nmol cytochrome C reduced/min/μg protein

Question: And the “weight increase ratio vs controls (FIG. 1)” value (C57BL/6J Lep ob/ob mice)?
Answer: significantly decreased

Question: And the “Lactate change amount within cells” value (cells)?
Answer: 6.8 nmol/mg cell

Question: Which “NQO1 activity (5 μM, [nmol cytochrome C reduced/min/μg protein])” value (NQO1 protein; [1]) does the source give for `O=C1C(=O)c2nc(CN3CCOCC3)oc2-c2ccccc21` [Example 4, 2-(morpholinomethyl)naphtho[2,1-d]oxazole-4,5-dione] here?
Answer: 207.3 nmol cytochrome C reduced/min/μg protein

Question: And the “intake amount vs controls (FIG. 2)” value (C57BL/6J Lep ob/ob mice; [2])?
Answer: significantly decreased

Question: And the “weight change vs controls (FIG. 2)” value (C57BL/6J Lep ob/ob mice; [2])?
Answer: significantly decreased

Question: And the “weight increase ratio vs controls (FIG. 2)” value (C57BL/6J Lep ob/ob mice; [2])?
Answer: significantly decreased

Question: What about the “Lactate change amount within cells” value (cells) of the same molecule?
Answer: 9.3 nmol/mg cell

Question: Which results are given for `O=C1C(=O)c2oc(-c3ccc(F)cc3)nc2-c2cccnc21` [Example 36]?
Answer: NQO1 activity (5 μM, [nmol cytochrome C reduced/min/μg protein]) (NQO1 protein; [1]): 936.1 nmol cytochrome C reduced/min/μg protein; intake amount vs controls (FIG. 6) (C57BL/6J Lep ob/ob mice; [3]): significantly decreased; weight change vs controls (FIG. 6) (C57BL/6J Lep ob/ob mice; [3]): significantly decreased; weight increase ratio vs controls (FIG. 6) (C57BL/6J Lep ob/ob mice; [3]): significantly decreased; Lactate change amount within cells (nmol/mg cell) (cells): 7.3 nmol/mg cell

Question: What does the source list for `COc1ccc(Br)c2c1-c1oc(C(C)C)nc1C(=O)C2=O` [Example 9, 6-bromo-2-isopropyl-9-methoxynaphtho[2,1-d]oxazole-4,5-dione]?
Answer: NQO1 activity (5 μM, [nmol cytochrome C reduced/min/μg protein]) (NQO1 protein; [1]): 73.6 nmol cytochrome C reduced/min/μg protein; weight change vs controls (FIG. 4) (C57BL/6J Lep ob/ob mice; [4]): significantly decreased; weight increase ratio vs controls (FIG. 4) (C57BL/6J Lep ob/ob mice; [4]): significantly decreased; Lactate change amount within cells (nmol/mg cell) (cells): 7.3 nmol/mg cell

Question: Which “NQO1 activity (5 μM, [nmol cytochrome C reduced/min/μg protein])” value (NQO1 protein; [1]) does the source give for `CCc1nc2c(o1)C(=O)C(=O)c1ccccc1-2` [Example 51] here?
Answer: 240.9 nmol cytochrome C reduced/min/μg protein

Question: And the “intake amount vs controls (FIG. 7)” value (C57BL/6J Lep ob/ob mice; [5])?
Answer: significantly decreased in some sections

Question: What about the “weight change vs controls (FIG. 7)” value (C57BL/6J Lep ob/ob mice; [5]) of the same molecule?
Answer: significantly decreased in some sections

Question: What about the “weight increase ratio vs controls (FIG. 7)” value (C57BL/6J Lep ob/ob mice; [5]) of the same molecule?
Answer: significantly decreased in some sections

Question: And the “Lactate change amount within cells” value (cells)?
Answer: 5.7 nmol/mg cell

Question: For `O=C1C(=O)c2c(oc(=O)n2Cc2ccc(F)cc2)-c2ccccc21` [Example 42], which “NQO1 activity (5 μM, [nmol cytochrome C reduced/min/μg protein])” value (NQO1 protein; [1]) is on record?
Answer: 208.0 nmol cytochrome C reduced/min/μg protein

Question: What about the “intake amount vs controls (FIG. 8)” value (C57BL/6J Lep ob/ob mice; [6]) of the same molecule?
Answer: significantly decreased in some sections

Question: And the “weight change vs controls (FIG. 8)” value (C57BL/6J Lep ob/ob mice; [6])?
Answer: significantly decreased in some sections

Question: And the “weight increase ratio vs controls (FIG. 8)” value (C57BL/6J Lep ob/ob mice; [6])?
Answer: significantly decreased in some sections

Question: And the “Lactate change amount within cells” value (cells)?
Answer: 7.1 nmol/mg cell

Question: For `CC(C)(C)c1nc2c(o1)C(=O)C(=O)c1ccccc1-2` [Example 28, 2-tert-butylnaphtho[1,2-d]oxazole-4,5-dione], which “intake amount vs controls (FIG. 3)” value (C57BL/6J Lep ob/ob mice; mouse, in vivo, po, 100 mg/kg) is on record?
Answer: significantly decreased

Question: And the “Lactate change amount within cells” value (cells)?
Answer: 7.4 nmol/mg cell

Question: How did the “NQO1 activity (5 μM, [nmol cytochrome C reduced/min/μg protein])” value (NQO1 protein; [1]) turn out when `CC(C)c1nc2c(o1)-c1ccccc1C(=O)C2=O` [Example 1, 2-isopropylnaphtho[2,1-d]oxazole-4,5-dione] was run?
Answer: 255.2 nmol cytochrome C reduced/min/μg protein

Question: And the “weight increase ratio vs controls (FIG. 1)” value (C57BL/6J Lep ob/ob mice)?
Answer: significantly decreased

Question: And the “Lactate change amount within cells” value (cells)?
Answer: 5.2 nmol/mg cell

Question: Which “NQO1 activity (5 μM, [nmol cytochrome C reduced/min/μg protein])” value (NQO1 protein; [1]) does the source give for `COc1cccc2c1-c1oc(C(C)C)nc1C(=O)C2=O` [Example 8, 2-isopropyl-9-methoxynaphtho[2,1-d]oxazole-4,5-dione] here?
Answer: 205.1 nmol cytochrome C reduced/min/μg protein

Question: And the “intake amount vs controls (FIG. 3)” value (C57BL/6J Lep ob/ob mice; [7])?
Answer: significantly decreased

Question: What about the “weight increase ratio vs controls (FIG. 3)” value (C57BL/6J Lep ob/ob mice; [7]) of the same molecule?
Answer: significantly decreased

Question: What about the “Lactate change amount within cells” value (cells) of the same molecule?
Answer: 6.2 nmol/mg cell

Question: Which “NQO1 activity (5 μM, [nmol cytochrome C reduced/min/μg protein])” value (NQO1 protein) does the source give for `Cc1cc(=O)n(C)c2c1-c1oc(C(C)C)nc1C(=O)C2=O` [Example 7, 2-isopropyl-6,9-dimethyloxazolo[5,4-f]quinoline-4,5,7(6H)-trione] here?
Answer: 69.8 nmol cytochrome C reduced/min/μg protein

Question: And the “Lactate change amount within cells” value (cells)?
Answer: 8.0 nmol/mg cell

Question: What does the source list for `CC(C)c1nc2c(o1)-c1c(cccc1[N+](=O)[O-])C(=O)C2=O` [Example 12, 2-isopropyl-9-nitronaphtho[2,1-d]oxazole-4,5-dione]?
Answer: NQO1 activity (5 μM, [nmol cytochrome C reduced/min/μg protein]) (NQO1 protein; [1]): 379.2 nmol cytochrome C reduced/min/μg protein; Lactate change amount within cells (nmol/mg cell) (cells): 10.3 nmol/mg cell

Question: `O=C1C(=O)c2nc(CNc3cccc(Cl)c3)oc2-c2ccccc21` [Example 45] was tested. Which “NQO1 activity (5 μM, [nmol cytochrome C reduced/min/μg protein])” value (NQO1 protein) did it give?
Answer: 229.2 nmol cytochrome C reduced/min/μg protein

Question: And the “Lactate change amount within cells” value (cells)?
Answer: 6.7 nmol/mg cell

Question: What does the source list for `CC(C)(C)c1nc2c(o1)C(=O)C(=O)c1cc(N)ccc1-2` [Example 30, 7-amino-2-tert-butylnaphtho[1,2-d]oxazole-4,5-dione]?
Answer: intake amount vs controls (FIG. 5) (C57BL/6J Lep ob/ob mice; mouse, in vivo, po, 150 mg/kg): significantly decreased; weight change vs controls (FIG. 5) (C57BL/6J Lep ob/ob mice; mouse, in vivo, po, 150 mg/kg): significantly decreased; Lactate change amount within cells (nmol/mg cell) (cells): 7.3 nmol/mg cell
